Test results as given in patent US4370266A, “Mycoplanecin derivatives and their preparation” (Sankyo Company, Limited, priority 1980, dated 1983).
In brackets after ≈: the same amount, converted by molar mass. Where two headings read alike, the source gives them in different places. Numbered stars: 1 amine (or outer) side, 2 acyl side, 3 side chain; on linkers, the order of the positions; unused ones are H or OH. Bridge positions count the residues as written; N and C are the ends. Square brackets hold non-standard residues; d marks the D form. Peptide text beside a SMILES is read from it. * marks the point of attachment. ξ: configuration not given here. X1 = CCC1CC(C(=O)[*:2])N([*:1])C1; Butanoyl(2-oxo) = CCC(=O)C(=O)*; NMeAhp(2) = CCCCC[CH](NC)C(=O)O; ξPro(4ξ-Me) = CC1CNC(C(=O)O)C1; NMeT = CN[CH](C(=O)O)[CH](C)O; NMeL = CN[CH](CC(C)C)C(=O)O; hLeu = CC(C)CC[CH](N)C(=O)O; NMeV = CN[CH](C(=O)O)C(C)C; X2 = CCC(O)C(=O)*

Experiments:
[1] = test system: Mycobacterium smegmatis ATCC 607; test: Minimal inhibitory concentration (MIC), Mycobacterium smegmatis ATCC 607; settings: Mycolicibacterium smegmatis, ATCC607, 168 h
[2] = test system: microorganisms of the genus Mycobacterium; settings: earlier applications on Mycoplanecin A; cited from earlier work
[3] = test system: Penicillium chrysogenum SANK 12768; test: MIC, Penicillium chrysogenum SANK 12768; type: cell-based
Micrococcus luteus = test: MIC, Micrococcus luteus; settings: 24 h
[4] = test system: Bacillus subtilis PCI 219; test: MIC, Bacillus subtilis PCI 219; settings: PCI219, 24 h
[5] = test system: Trichophyton mentagrophytes SANK 22374; test: MIC, Trichophyton mentagrophytes SANK 22374; type: cell-based
[6] = test system: Aspergillus oryzae SANK 11262; test: MIC, Aspergillus oryzae SANK 11262; type: cell-based
[7] = test system: Pseudomonas aeruginosa SANK 73860; test: MIC, Pseudomonas aeruginosa SANK 73860; settings: SANK73860, 24 h
[8] = test system: Staphylococcus aureus 209P JC-1; test: MIC, Staphylococcus aureus 209P JC-1; settings: 24 h
[9] = test system: Escherichia coli NIHJ JC-2; test: MIC, Escherichia coli NIHJ JC-2; settings: NIHJJC2, 24 h
[10] = test system: Xanthomonas oryzae SANK 70274; test: microbe, parasite or virus in culture; type: cell-based; settings: SANK70274, 72 h
[11] = test system: Klebsiella pneumoniae PCI 602; test: MIC, Klebsiella pneumoniae PCI 602; settings: PCI602, 24 h
[12] = test system: Piricularia oryzae SANK 16975; test: microbe, parasite or virus in culture; type: cell-based; settings: 48 h
Candida albicans Yu 1200 = test: MIC, Candida albicans Yu 1200; type: cell-based
Proteus vulgaris OX19 = test: MIC, Proteus vulgaris OX19; settings: OX19, 24 h
Proteus mirabilis 1331 = test: MIC, Proteus mirabilis 1331; settings: Proteus mirabilis, 1331, 24 h
Solubility = settings: for Solubility: soluble in: organic solvents; for Solubility: insoluble in: water and, where named, other solvents

For `CCCCCC1C(=O)NCC(=O)OC(C)C(N(C)C(=O)C2CC(CC)CN2C(=O)C(C(C)C)N(C)C(=O)C(O)CC)C(=O)NC(CC(C)C)C(=O)N2CC(C)CC2C(=O)NC(CCC(C)C)C(=O)N(C)C(C(C)C)C(=O)N2CCCC2C(=O)N1C` (stereo not drawn) [Compound (IIIa)] (X2-[NMeV][X1][NMeT]L[ξPro(4ξ-Me)][hLeu][NMeV]P[NMeAhp(2)]G; ester 3-C; configuration not given here), the MIC [1] was 0.05 µg/mL (≈ 0.0417 µM).

Work on `CCCCCC1C(=O)NCC(=O)OC(C)C(N(C)C(=O)C2CC(CC)CN2)C(=O)NC(CC(C)C)C(=O)N2CC(C)CC2C(=O)NC(CCC(C)C)C(=O)N(C)C(C(C)C)C(=O)N2CCCC2C(=O)N1C` (stereo not drawn) [Compound (IIIb)] (H-[X1][NMeT]L[ξPro(4ξ-Me)][hLeu][NMeV]P[NMeAhp(2)]G; ester 2-C; configuration not given here) yielded an MIC [1] of 6.25 µg/mL (≈ 6.25 µM).

`CCC(O)C(=O)N(C)C(C(=O)N1CC(C)CC1C(=O)N(C)C1C(=O)NC(CC(C)C)C(=O)N2CC(C)CC2C(=O)NC(CCC(C)C)C(=O)N(C)C(C(C)C)C(=O)N2CCCC2C(=O)N(C)C(CC(C)C)C(=O)NCC(=O)OC1C)C(C)C` (stereo not drawn) [Compound (IIa)] showed an MIC [1] of 0.05 µg/mL (≈ 0.0427 µM).

In the case of `CC(C)CCC1NC(=O)C2CC(C)CN2C(=O)C(CC(C)C)NC(=O)C(N(C)C(=O)C2CC(C)CN2)C(C)OC(=O)CNC(=O)C(CC(C)C)N(C)C(=O)C2CCCN2C(=O)C(C(C)C)N(C)C1=O` (stereo not drawn) [Compound (IIb)], the MIC [1] is reported as 6.25 µg/mL (≈ 6.43 µM).

In the case of `CCC(=O)C(=O)N(C)C(C(=O)N1CC(CC)CC1C(=O)N(C)C1C(=O)NC(CC(C)C)C(=O)N2CC(C)CC2C(=O)NC(CCC(C)C)C(=O)N(C)C(C(C)C)C(=O)N2CCCC2C(=O)N(C)C(CC(C)C)C(=O)NCC(=O)OC1C)C(C)C` (stereo not drawn) [Mycoplanecin A] ({Butanoyl(2-oxo)}-[NMeV][X1][NMeT]L[ξPro(4ξ-Me)][hLeu][NMeV]P[NMeL]G; ester 3-C; configuration not given here), the antibacterial activity [2] is given as “antibacterial activity, especially against microorganisms of the genus Mycobacterium”.

In the case of `CCC(=O)C(=O)N(C)C(C(=O)N1CC(C)CC1C(=O)N(C)C1C(=O)NC(CC(C)C)C(=O)N2CC(C)CC2C(=O)NC(CCC(C)C)C(=O)N(C)C(C(C)C)C(=O)N2CCCC2C(=O)N(C)C(CC(C)C)C(=O)NCC(=O)OC1C)C(C)C` (stereo not drawn) [Mycoplanecin B], the MIC ([3]; SANK12768, 48 h) is reported as > 400 µg/mL, the MIC (Micrococcus luteus) is reported as 0.0125 µg/mL (≈ 0.0107 µM) and the MIC [4] is reported as > 400 µg/mL. For the same compound, the MIC ([5]; SANK22374, 48 h) was > 400 µg/mL, the MIC ([6]; SANK11262, 48 h) was > 400 µg/mL and the MIC [7] was > 400 µg/mL. For the same compound, the MIC [8] was > 400 µg/mL, the MIC [1] was 0.05 µg/mL (≈ 0.0428 µM) and the MIC [9] was > 400 µg/mL. For the same compound, the MIC ([10]; read-out: MIC) was 12.5 µg/mL (≈ 10.7 µM), the MIC [11] was > 400 µg/mL and the MIC [12] was > 400 µg/mL. The MIC (Candida albicans Yu 1200; YU1200, 48 h) was > 400 µg/mL, the MIC (Proteus vulgaris OX19) was > 400 µg/mL and the MIC (Proteus mirabilis 1331) was > 400 µg/mL. For the same compound, the “Solubility: soluble in” value (Solubility) was “Soluble in methanol, ethanol, ethyl acetate, acetone and chloroform” and the “Solubility: insoluble in” value (Solubility) was “Insoluble in water”.

In the case of `CCCCCC1C(=O)NCC(=O)OC(C)C(N(C)C(=O)C2CC(CC)CN2C(=O)C(C(C)C)N(C)C(=O)C(=O)CC)C(=O)NC(CC(C)C)C(=O)N2CC(C)CC2C(=O)NC(CCC(C)C)C(=O)N(C)C(C(C)C)C(=O)N2CCCC2C(=O)N1C` (stereo not drawn) [Mycoplanecin C] ({Butanoyl(2-oxo)}-[NMeV][X1][NMeT]L[ξPro(4ξ-Me)][hLeu][NMeV]P[NMeAhp(2)]G; ester 3-C; configuration not given here), the MIC ([3]; SANK12768, medium S: 48 hours at 26° C. in Sabouraud's agar, read-out: MIC) is reported as > 400 µg/mL, the MIC (Micrococcus luteus) is reported as 0.0125 µg/mL (≈ 0.0104 µM) and the MIC [4] is reported as > 400 µg/mL. The MIC ([5]; SANK22374, medium S: 48 hours at 26° C. in Sabouraud's agar, read-out: MIC) was > 400 µg/mL, the MIC ([6]; SANK11262, medium S: 48 hours at 26° C. in Sabouraud's agar, read-out: MIC) was > 400 µg/mL and the MIC [7] was > 400 µg/mL. The MIC [8] was > 400 µg/mL, the MIC [1] was 0.05 µg/mL (≈ 0.0418 µM) and the MIC [9] was > 400 µg/mL. For the same compound, the MIC [10] was 12.5 µg/mL (≈ 10.4 µM), the MIC [11] was > 400 µg/mL and the MIC [12] was > 400 µg/mL. The MIC (Candida albicans Yu 1200; YU1200, medium S: 48 hours at 26° C. in Sabouraud's agar, read-out: MIC) was > 400 µg/mL, the MIC (Proteus vulgaris OX19) was > 400 µg/mL and the MIC (Proteus mirabilis 1331) was > 400 µg/mL. For the same compound, the “Solubility: soluble in” value (Solubility) was “Soluble in methanol, ethanol, ethyl acetate, acetone and chloroform” and the “Solubility: insoluble in” value (Solubility) was “Insoluble in water”.
